Target: T1, Vanilloid receptor (Rattus norvegicus, UniProt Q9ERZ8+Q9WUD2+O35433)
Assay: Antagonistic activity against vanilloid receptor as concentration to reduce the response to […] by 50% from neonatal rat culture spinal sensory neurons using [Ca2+] -influx assay
Type: functional

Question: Which IC50 does the source give for `COc1cc(CCCN(CCc2ccc([N+](=O)[O-])cc2)/C(S)=N/CCc2ccccc2)ccc1O` here?
Answer: The IC50 was 0.5 nM.

Question: `CCN(CCCc1ccc(O)c(OC)c1)/C(S)=N/CCc1ccccc1` was tested. Which IC50 did it give?
Answer: The IC50 was over 30 nM.

Question: `COc1ccc(CCCN(/C(S)=N/CCc2ccccc2)C(C)C)cc1OC` was tested. Which IC50 did it give?
Answer: Its IC50 is 10.5 nM.

Question: How did the IC50 turn out when `COc1cc(CCCN(Cc2ccccc2)/C(S)=N/CCc2ccccc2)ccc1O` was run?
Answer: Its IC50 is 0.95 nM.

Question: For `COc1cc(CCCCN(CCc2ccccc2)/C(S)=N/CCc2ccccc2)ccc1O`, which IC50 is on record?
Answer: The IC50 was 6.1 nM.

Question: With `COc1cc(CCCN(CCc2ccc(Cl)cc2)/C(S)=N/CCc2ccccc2)ccc1O` as the compound, how does the IC50 read?
Answer: The IC50 was 0.55 nM.

Question: Which IC50 does the source give for `CCCCCCCCN(CCCc1ccc(O)c(OC)c1)/C(S)=N/CCc1ccccc1` here?
Answer: Its IC50 is over 30 nM.

Question: For `COc1ccc(CCN(CCCc2ccc(O)c(OC)c2)/C(S)=N/CCc2ccccc2)cc1`, which IC50 is on record?
Answer: Its IC50 is 0.72 nM.

Question: With `CC(C)N(CCCc1ccc(O)cc1)/C(S)=N/CCc1ccccc1` as the compound, how does the IC50 read?
Answer: Its IC50 is over 30 nM.

Question: How did the IC50 turn out when `COc1cc(CCCN(/C(S)=N/CCc2ccccc2)C(C)C)ccc1O` was run?
Answer: Its IC50 is 2.5 nM.

Question: Which IC50 does the source give for `COc1cc(CCCN(CCc2ccccc2)/C(S)=N/CCc2ccc(Cl)cc2)ccc1O` here?
Answer: Its IC50 is 2.4 nM.

Question: `COc1cc(CCCN(CCc2ccccc2)/C(S)=N/CCc2ccccc2)ccc1O` was tested. Which IC50 did it give?
Answer: Its IC50 is 0.32 nM.

Question: Which IC50 does the source give for `COc1cc(CCCN(CCCc2ccccc2)/C(S)=N/CCc2ccccc2)ccc1O` here?
Answer: Its IC50 is 3.2 nM.

Question: For `CCCCN(CCCc1ccc(O)c(OC)c1)/C(S)=N/CCc1ccccc1`, which IC50 is on record?
Answer: The IC50 was 10 nM.

Question: For `CC(C)N(CCCc1ccc(O)c(O)c1)/C(S)=N/CCc1ccccc1`, which IC50 is on record?
Answer: Its IC50 is 9.3 nM.

Question: With `COc1cc(CCCN(/C(S)=N/CCc2ccccc2)C2CCCCC2)ccc1O` as the compound, how does the IC50 read?
Answer: The IC50 was 3 nM.

Question: With `COc1cc(CCCN(CCc2ccc(F)cc2)/C(S)=N/CCc2ccccc2)ccc1O` as the compound, how does the IC50 read?
Answer: Its IC50 is 1.2 nM.

Question: `Oc1cc2c(cc1O)CN(C(=S)NCCc1ccc(Cl)cc1)CCC2` [CAPSAZEPINE] was tested. Which IC50 did it give?
Answer: Its IC50 is 650000 nM.

Question: `COc1cc(CCCN(CCc2ccc(C)cc2)/C(S)=N/CCc2ccccc2)ccc1O` was tested. Which IC50 did it give?
Answer: The IC50 was 0.95 nM.

Question: With `CCCN(CCCc1ccc(O)c(OC)c1)/C(S)=N/CCc1ccccc1` as the compound, how does the IC50 read?
Answer: Its IC50 is 12 nM.

Question: Which IC50 does the source give for `COc1cc(CCCN(/C(S)=N/CCc2ccccc2)C(c2ccccc2)c2ccccc2)ccc1O` here?
Answer: Its IC50 is 0.46 nM.

Question: For `COc1cc(CCCN(CCc2ccccc2)/C(S)=N/CCc2ccc(F)cc2)ccc1O`, which IC50 is on record?
Answer: The IC50 was 5.1 nM.

Target: T1, Vanilloid receptor
Assay: Agonistic activity towards vanilloid receptor, [Ca2+] influx in neonatal rat spinal sensory neuronal culture
Type: functional

Question: With `COc1cc(CCCN(C)/C(S)=N/CCc2ccccc2)ccc1O` as the compound, how does the EC50 read?
Answer: The EC50 was over 30000 nM.

Question: `COc1cc(CCC2CCCN2/C(S)=N/CCc2ccccc2)ccc1O` (stereo not given) was tested. Which EC50 did it give?
Answer: The EC50 was 3000 nM.

Question: `COc1cc(CCC/N=C(\S)NCCc2ccccc2)ccc1O` was tested. Which EC50 did it give?
Answer: The EC50 was over 30000 nM.
